Broadly, the inhibition is how much of the control response was suppressed. The LD50 is the dose expected to kill half of the subjects tested. A lower LD50 goes with greater toxicity.

For series [1], the system named is isolated myocardium of guinea-pigs (right ventricular papillary muscles). Kind of series: Effects on the action potential duration in the isolated myocardium of guinea-pigs. The class given is cell-based, guinea-pigs (male, Hartley strain). To be noted: Cavia porcellus, 10 min, stimulated at 1 Hz, 37° C.; for APD90 prolongation (%) at 10 µM / inhibition at 10 µM: 10^-5 M, another 10 min; for inhibition at 10 µM / inhibition at 1 µM: read-out: Vmax inhibition (%); for APD90 prolongation (%) at 1 µM / inhibition at 1 µM: 10^-6 M, first 10 min. How it is done:
Right ventricular papillary muscles were isolated from male guinea-pigs of Hartley strain weighing 300 to 400 g and fixed at the bottom of an acrylic bath with pins. They were perfused with Tyrode solution kept at 37° C. and saturated with a mixture of 95% O2 and 5% CO2. The muscles were stimulated at 1 Hz with rectangular pulses of 1 msec duration and supramaximal voltage. Action potentials were recorded using conventional glass microelectrodes filled with 3M KCl. The duration of the action potential and the maximum velocity of the upstroke of the action potential (Vmax) were determined. Each of the test compounds was included in Tyrode solution at 10^-6 or 10^-5 M and perfused.
The test compounds shown in Example 1 were as follows. Sotalol, a beta-adrenoceptor antagonist was employed as the reference drug because this compound is known to prolong the duration of the myocardial action potential.
Results are shown below in terms of APD90 prolongation (%) and Vmax inhibition (%).

Series [2] can be described thus: Acute toxicity test, intravenous injection in mice. To be noted: mouse, in vivo, male ddy mice weighing 20 to 30 g. How it is done:
Acute toxicity tests of typical compounds (the above-mentioned compounds A and B) of the present invention were conducted by applying them to male ddy mice weighing 20 to 30 g by intravenous injection.
Acute toxicity tests of typical compounds (the above-mentioned compounds A to E) of the present invention were conducted by applying them to male ddy mice weighing 20 to 30 g by intravenous injection.

Consider `CS(=O)(=O)Nc1ccc(SC2CCN(CCc3cccnc3)CC2)cc1` [compound (1) A], for which, in series [1], the APD90 prolongation (%) at 10 µM is 20%, the inhibition at 10 µM worked out at 0%, the APD90 prolongation (%) at 1 µM worked out at 11% and the inhibition at 1 µM came out at 0%. Also, the median lethal dose (LD50) in series [2] is 180 to 400 mg/kg.

Consider `Cc1cccc(CCN(C)CCCCC(=O)c2ccc(NS(C)(=O)=O)cc2)n1` [compound (2) E], for which, in series [1], the APD90 prolongation (%) at 10 µM is 27%, the inhibition at 10 µM came out at 0%, the APD90 prolongation (%) at 1 µM is 14% and the inhibition at 1 µM is 0%.

For the compound `CS(=O)(=O)Nc1ccc(C(CO)N2CCC(C(=O)c3ccc(F)cc3)CC2)cc1` (centres unmarked) [compound (3) A], in series [1], the APD90 prolongation (%) at 10 µM stood at 25%, the inhibition at 10 µM is 0%, the APD90 prolongation (%) at 1 µM was found to be 16% and the inhibition at 1 µM was 0%. Besides, the LD50 in series [2] is 180 to 400 mg/kg.

Consider `CS(=O)(=O)Nc1ccc(C(CO)N2CCC(C(=O)c3ccc(Cl)cc3)CC2)cc1` (centres unmarked) [compound (3) B], for which, in series [1], the APD90 prolongation (%) at 10 µM came out at 11%, the inhibition at 10 µM came out at 0%, the APD90 prolongation (%) at 1 µM was determined as 13% and the inhibition at 1 µM was determined as 0%. The LD50 in series [2] was 180 to 400 mg/kg.

As for `Cc1cccc(CCN(C)CC(=O)c2ccc(NS(C)(=O)=O)cc2)n1` [compound (2) A], in series [1], the APD90 prolongation (%) at 10 µM was 16%, the inhibition at 10 µM was 0%, the APD90 prolongation (%) at 1 µM was 12% and the inhibition at 1 µM worked out at 0%.

Regarding `Cc1cccc(CCN(C)CCCC(=O)c2ccc(NS(C)(=O)=O)cc2)n1` [compound (2) C], in series [1], the APD90 prolongation (%) at 10 µM came to 31%, the inhibition at 10 µM was 0%, the APD90 prolongation (%) at 1 µM is 17% and the inhibition at 1 µM came to 0%.

Regarding `Cc1cccc(CCN(C)CCC(=O)c2ccc(NS(C)(=O)=O)cc2)n1` [compound (2) B], in series [1], the APD90 prolongation (%) at 10 µM was found to be 19%, the inhibition at 10 µM is 0%, the APD90 prolongation (%) at 1 µM was determined as 18% and the inhibition at 1 µM stood at 0%.

Take `CC(C)NCC(O)c1ccc(NS(C)(=O)=O)cc1` (centres unmarked) [Sotalol, reference compound]: in series [1], the APD90 prolongation (%) at 10 µM came out at 7%, the inhibition at 10 µM was found to be 0%, the APD90 prolongation (%) at 1 µM was 0% and the inhibition at 1 µM was 0%.

Regarding `CCN(CCCC(=O)c1ccc(NS(C)(=O)=O)cc1)CCc1cccc(C)n1` [compound (2) D], in series [1], the APD90 prolongation (%) at 10 µM was found to be 31%, the inhibition at 10 µM came to 0%, the APD90 prolongation (%) at 1 µM came out at 17% and the inhibition at 1 µM was found to be 0%.

As to `CS(=O)(=O)Nc1ccc([S+]([O-])C2CCN(CCc3cccnc3)CC2)cc1` (centres unmarked) [compound (1) B], in series [1], the APD90 prolongation (%) at 10 µM was found to be 40%, the inhibition at 10 µM is 0%, the APD90 prolongation (%) at 1 µM stood at 14% and the inhibition at 1 µM stood at 0%. In series [2], this compound gave an LD50 of 180 to 400 mg/kg.

Source of the values: US5162347A, “Piperidine derivatives and therapeutic and preventive agents for arrhythmia containing same” (Eisai Co., Ltd., priority 1987, dated 1992).
